Here are results for two compounds from US20240366555A1, “SELECTIVE MTORC2 INHIBITOR AND USES THEREOF” (ALIAD BIOPHARMA, priority 2021, published 2024).

Assay [1] has as its system normal mice. The experiment in a line: 3 chamber test in normal mice. Conditions: 5 mg/kg, sociability measurement-2 session, FIG. 14b. It counts as in vivo. As to the method:
3-chamber test is a test to confirm sociability, social cognition, and social sexual preference, and it was tested by composing sessions 1 and 2. The experimental site was consisted of three chambers made of transparent acrylic walls with a small door and each chamber was length 50 cm×width 100 cm×height 50 cm. Through a cylindrical cage, the sense of smell and minimal contact of the test mice to the unfamiliar mouse were allowed. Prior to the test, the test mice were placed in an intermediate chamber and adapted for 5 minutes with both doors closed. The test was performed by dividing into sessions I and II. In the 3-chamber sociability measurement-1 session, an unfamiliar mouse met first was placed in a transparent box located at one end of the three rooms, and an empty transparent box of the same size was placed in the room located at the other side, and the target mouse was placed in the middle room, and then the time searching toward the counterpart within the social interaction zone was measured.
In order to verify this possibility, the efficacy of athyriol on memory ability and sociability of normal animals was investigated. […]

For assay [2], the system named is Pten KO mice. The experiment in a line: Macrocephaly alleviation (brain weight) in Pten KO mice. Format: in vivo. Also noted: average brain weight: unit not given here. Conditions: for average brain weight: FIG. 5. As to the method: As Pten KO mice, Ptenf/f_cre/cre KO mice or Ptenf/f_cre/++ Het mice (KD) were obtained by mating Pten floxed/floxed mice and CAMKII-cre mice. DMSO or athyriol was intraperitoneally injected at 5 or 10 mg/kg for 2 weeks from the age of mice of 6 weeks, and a behavioral test was performed in 7 days after administration. Pten floxed/floxed mice were used as littermates of the same age as a normal control group.
When athyriol was administered into Pten KO mice, whether the weight of brain increased compared to a mouse without Pten knockout was reduced was confirmed. In other words, whether athyriol had efficacy of alleviating macrocephaly symptoms was confirmed through the following experiment.
Specifically, the body weight was measured after the aforementioned behavioral test of Experimental examples 1-2 to 1-6, and then animals were sacrificed. After removing the skull, the brain including forebrain, midbrain and hindbrain was extracted and the ratio of brain weight to body weight and the body weight were measured.

Assay [3] deals with mTORC2 signaling (Fox03a location). The experiment in a line: Fox03a intracellular location by immunofluorescent staining in A549. It counts as cell-based, human. Conditions: A549 cells, treated for 3 hours; FIG. 7c. The source says:
mTORC2 activates SGK3, and SGK3 phosphorylates Fox03a, allowing Fox03a to remain in the cytoplasm. When mTORC2 is inhibited, Fox03a is dephosphorylated and translocated to the nucleus, and in the nucleus, it binds to FHRE located in a gene promoter to induce gene expression. Therefore, the change in the intracellular location of Fox03a and FHRE dependent gene expression become indicators for evaluating mTORC2 activity. In order to evaluate the effect of norathyriol on the mTORC2 activity, norathyriol was treated to A549, and then the change in the intracellular location of Fox03a was investigated by immunofluorescent staining.
Specifically, the A549 cells of 1×10^5 were seeded in a confocal dish coated with 35 mm collagen and cultured for 1 day. After treating norathyriol, the cells were fixed with 4% paraformaldehyde at 4° C. for 15 minutes. After treating PBS containing 0.5% Triton X-100 (PBS-T) at a room temperature for 5 minutes for permeabilization, PBS containing 5% normal goat serum and 1% gelatin was treated at a room temperature for 30 minutes for blocking. The Fox03a antibody diluted in 1% BSA was treated at a room temperature for 1 hour. After washing the culture dish with PBS-T, an FITC conjugated anti-rabbit secondary antibody diluted in 1% BSA was treated at a room temperature for 50 minutes. […]

Assay [4] concerns mTORC2 signaling pathway. The experiment in a line: Immunoblot analysis of mTORC2 signaling pathway in A549 cells. It counts as cell-based, human. The procedure:
In order to investigate the effect on the mTORC2 signaling pathway of norathyriol in a culture cell model, after treating norathyriol to a human cell line A549, Akt Ser473 phosphorylation, Akt Thr308 phosphorylation, and NDRG1 Thr346 phosphorylation were measured by immunoblot analysis over time. The A549 cells were cultured in RPMI culture medium in which 10% heat inactivated FBS and 1× GlutaMax were added. After seeding the A549 cells of 2×10^5 in a 60 mm culture dish and culturing them for 1 day, norathyriol was treated to the cells. The cells were washed with ice-cold 1× PBS twice, and then the cells were […] using RIPA buffer (50 mM Tris-HCl (pH7.4), 150 mM NaCl, 0.25% sodium deoxycholate, 1% NP-40, 1% SDS, 1 mM EDTA, 1 mM EGTA, 1 mM sodium β-glycerophosphate, 1 mM PMSF, 1 μg/ml leupeptin, 1 μg/ml pepstatin A, 10 nM aprotinin, 1 mM Na3VO4, 50 mM NaF, 10 nM calyculin A) on ice. After removing undissolved substances by centrifuging at 4° C. at 15,000× g for 15 minutes, the supernatant was recovered to determine the protein concentration with BCA protein assay kit (Thermo Fisher Scientific). 2× SDS-PAGE sample buffer in the same volume was added to the supernatant and boiled for 5 minutes, and then it was developed under a reducing condition by SDS-polyacrylamide gel electrophoresis. The developed protein was transferred into a PVDF membrane by an electro blotting method. The membrane was blocked in TBST containing 5% skim milk (100 mM Tris-Cl, pH 8.8, 150 mM NaCl, 0.1% Tween-20) at a room temperature for 1 hour, and then it was reacted with a primary antibody. After washing with TBST for 10 minutes 3 times, it was reacted with a secondary antibody conjugated with HRP. After washing with TBST for 10 minutes 3 times, it was reacted with an enhanced chemiluminescence (ECL) reagent to obtain an image of the protein combined with the secondary antibody. For the immunoblot analysis, AKT antibody (#4691, Cell Signaling), phospho-Ser473 AKT antibody (#4060, Cell Signaling), phospho-Thr308 AKT antibody (#2965, Cell Signaling), p70 S6 kinase antibody (#9202, Cell Signaling), and phospho-Thr389 p70 S6 kinase antibody (#9205, Cell Signaling) were used.
mTORC2 activates SGK1, and SGK1 phosphorylates NDRG1 Thr346. NDRG1 phosphorylated at Thr346 is removed by a ubiquitination-proteasome system. Accordingly, when the mTORC2 activity is inhibited, NDRG1 Thr346 phosphorylation is reduced, whereas NDRG1 protein increases.

Take `COc1cc(O)c2c(=O)c3cc(O)c(O)cc3oc2c1` [athyriol, 1,6,7-Trihydroxy-3-methoxy-9H-xanthen-9-on]: the “increase in ratio of searching time for familiar mice to searching time for unfamiliar mice compared to vehicle control” value in assay [1] was determined as 11%. Besides, the “brain weight corrected by body weight, increase compared to control group” value is recorded as “about 1.3 times” in assay [2] (5 mg/kg) and approximately 1.26 times in assay [2] (10 mg/kg). Besides, the average brain weight was 517 in assay [2] (5 mg/kg for 14 days) and 515 in assay [2] (10 mg/kg for 14 days). Besides, in assay [2] (5 or 10 mg/kg for 14 days), the “alleviation of macrocephaly symptoms” value is not below 68%.
Regarding `O=c1c2cc(O)c(O)cc2oc2cc(O)cc(O)c12` [norathyriol, 1,3,6,7-tetrahydroxy-9H-xanthen-9-one], in assay [3], the “intracellular location of Fox03a” value was “moved to the nucleus”. In assay [4] (FIG. 7a), the “Akt Ser473 phosphorylation (mTORC2 activity indicator)” value is recorded as “reduced”; the “Akt Thr308 phosphorylation (PDK1 activity indicator)” value was “not reduced and rather increased after 24 hours”. Moreover, in assay [4] (FIG. 7b), the NDRG1 protein entry is recorded as “increased significantly” and the “ratio of NDRG1 Thr346 phosphorylation to NDRG1 protein” value is reported as “reduced”.
